ChEMBL document CHEMBL3046110, “Screening and evaluation of thiourea derivatives for their HIV capsid and human cyclophilin A inhibitory activity” (Med Chem Res, 2011)

Columns and labels:
[1] = Toxicity index, ratio of TC50 for human CEM174 cells to EC50 for Simian immunodeficiency virus; format: cell-based; details: read-out: TI
[2] = test system: Simian immunodeficiency virus; test: Antiviral activity against Simian immunodeficiency virus infected CEM174 cells assessed as inhibition of virus-induced syncytium after 5 days by microscopic analysis; format: functional, organism-based; details: CEM174, 120 h
[3] = target: Structural capsid protein (Human immunodeficiency virus 1) (UniProt Q76129); test: Inhibition of Human immunodeficiency virus 1 capsid protein expressed in Escherichia coli BL21(DE3) assessed as capsid assembly rate measured every 5 secs by spectrofluorometric analysis (reference value: 51.88 x 10^-5 OD/s)
Sequence of Structural capsid protein (Human immunodeficiency virus 1) (Q76129 as listed by the source): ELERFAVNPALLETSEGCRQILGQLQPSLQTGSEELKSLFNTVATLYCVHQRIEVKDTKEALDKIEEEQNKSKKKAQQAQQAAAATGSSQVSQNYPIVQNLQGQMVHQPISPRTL

[4] = target: T1, Peptidyl-prolyl cis-trans isomerase A (Homo sapiens, UniProt P62937); test: Inhibition of Homo sapiens (human) cyclophilin A PPIase activity expressed in Escherichia coli BL21(DE3) using Suc-AAPF-pNA as substrate measured after 6 secs for 20 secs by spectrophotometric analysis
T1 sequence (P62937 whole entry): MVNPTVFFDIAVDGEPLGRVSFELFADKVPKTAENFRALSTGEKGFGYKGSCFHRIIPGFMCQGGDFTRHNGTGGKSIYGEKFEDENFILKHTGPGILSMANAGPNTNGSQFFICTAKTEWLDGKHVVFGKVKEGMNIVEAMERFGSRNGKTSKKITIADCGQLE

[5] = target: T1, Peptidyl-prolyl cis-trans isomerase A; test: Binding affinity to Homo sapiens (human) cyclophilin A expressed in Escherichia coli BL21(DE3) by fluorescence titration assay
[6] = Cytotoxicity against Homo sapiens (human) CEM174 by MTT assay; details: CEM174 cells, read-out: TC50 (the source's name)

| Kd [5] | IC50 ([4]; read-out: IC50) | SMILES | selectivity ratio [1] | EC50 [2] | Activity [3] | IC50 [4] | CC50 [6] |
| --- | --- | --- | --- | --- | --- | --- | --- |
|  |  | Cc1cc(NS(=O)(=O)c2ccc(NC(=S)Nc3ccc(C)c(Cl)c3)cc2)no1 | 127 | 0.6 µM | 18.4 ×10⁻⁵ OD/s |  |  |
| 200 µM |  | CCN(CC)c1nc(C)cc(NC(=S)Nc2cccc(Br)c2)n1 | > 1.5 | 5.5 µM |  | Not Active | 8.4 µM |
|  |  | CCN(CC)c1nc(C)c([N+](=O)[O-])c(NC(=S)Nc2cccc(F)c2)n1 | > 26.3 | 3.8 µM | 20.7 ×10⁻⁵ OD/s |  | > 100 µM |
|  | 0.74 µM | O=C1OCc2ccc(NC(=S)Nc3cccc(F)c3)cc21 | 10 | 6.3 µM |  |  |  |
|  | 0.92 µM | COc1ccc(NC(=S)Nc2ccc3c(c2)C(=O)OC3)cc1 | 20 | 9.7 µM |  |  |  |
|  |  | Cc1cccc(NC(=S)Nc2ccc3c(c2)C(=O)OC3)c1 | 1 | 11.6 µM | 32.7 ×10⁻⁵ OD/s | Not Active |  |
|  |  | O=S(=O)(Nc1nccs1)c1ccc(NC(=S)Nc2ccc(Cl)cc2)cc1 | 3 | 0.7 µM |  |  |  |
|  |  | Cc1cc(NS(=O)(=O)c2ccc(NC(=S)Nc3cccc(Br)c3)cc2)no1 | 66 | 0.9 µM | 15.8 ×10⁻⁵ OD/s |  |  |
|  |  | O=C1OCc2ccc(NC(=S)Nc3ccccc3)cc21 | 28 | 1.3 µM | 25.5 ×10⁻⁵ OD/s |  | 36.3 µM |
|  |  | Cc1cc(NS(=O)(=O)c2ccc(NC(=S)Nc3ccc(Cl)cc3)cc2)no1 | 9 | 4.1 µM | 14.7 ×10⁻⁵ OD/s |  |  |
|  |  | CCN(CC)c1nc(C)c([N+](=O)[O-])c(NC(=S)Nc2cccc(Cl)c2)n1 | 8.6 | 3.7 µM | 21.2 ×10⁻⁵ OD/s |  | 31.5 µM |
|  |  | CCN(CC)c1nc(C)c([N+](=O)[O-])c(NC(=S)Nc2ccc(Cl)cc2)n1 | > 8.33 | 12 µM | 48.9 ×10⁻⁵ OD/s |  | > 100 µM |
|  |  | Cc1cc(NS(=O)(=O)c2ccc(NC(=S)Nc3ccccc3C)cc2)no1 | 8 | 6.2 µM |  |  |  |
| 79.3 µM | 0.81 µM | CCN(CC)c1nc(C)c([N+](=O)[O-])c(NC(=S)Nc2cccc(Br)c2)n1 | 3.5 | 7.4 µM |  |  | 26.2 µM |
|  |  | Cc1cc(NS(=O)(=O)c2ccc(NC(=S)Nc3cccc(Cl)c3)cc2)no1 | 92 | 1 µM | 7.97 ×10⁻⁵ OD/s |  |  |
|  |  | Cc1ccc(NC(=O)NCCSCc2ccc(CN(C)C)o2)cc1Cl |  |  | 26.5 ×10⁻⁵ OD/s |  |  |
|  |  | Cc1ccc(NS(=O)(=O)c2ccc(NC(=S)Nc3ccc(Cl)cc3)cc2)cc1 | 19 | 4.1 µM | 13.3 ×10⁻⁵ OD/s |  | 77.5 µM |
|  |  | COc1ccc(NC(=S)Nc2ccc(S(=O)(=O)Nc3cc(C)on3)cc2)cc1 | 27 | 1.5 µM | 20.2 ×10⁻⁵ OD/s |  |  |
|  |  | Cc1ccc(NC(=S)Nc2ccc3c(c2)C(=O)OC3)cc1Cl | 4 | 4.6 µM | 9.9 ×10⁻⁵ OD/s |  |  |
| 73.3 µM | 0.74 µM | CCN(CC)c1nc(C)c([N+](=O)[O-])c(NC(=S)Nc2ccc(C)c(Cl)c2)n1 | > 14.1 | 6.3 µM |  |  | > 100 µM |

| SMILES | Kd [5] | IC50 ([4]; read-out: IC50) | selectivity ratio [1] | EC50 [2] | Activity [3] | IC50 [4] | CC50 [6] |
| --- | --- | --- | --- | --- | --- | --- | --- |
| Cc1cc(NS(=O)(=O)c2ccc(NC(=S)Nc3cccc(F)c3)cc2)no1 |  | 0.88 µM | 8 | 11.6 µM | 38.5 ×10⁻⁵ OD/s |  |  |
